This data set concerns CCRIS mutagenicity, Ames/micronucleus/aberration tests. As to the kind of experiment: CCRIS mutagenicity studies.
The mark [1] stands for this setting: Test System: MOUSE LYMPHOMA, Strain/Indicator: L5178Y (TK+/TK-), Metabolic Activation: RAT, LIVER, S-9, AROCLOR 1254, Method: SUSPENSION/PLATE.
The mark [2] stands for this setting: Test System: AMES SALMONELLA TYPHIMURIUM, Strain/Indicator: TA100, Metabolic Activation: NONE, Method: STANDARD PLATE.

Calls of active or inactive are those of the source. No rule for the calls is given here.

From PubChem BioAssay AID1259407 (Chemical Carcinogenesis Research Information System (CCRIS), 2018) come the findings set out here.

In the case of `C1=Cc2c3c1cccc3cc1ccc3ccccc3c21`, the mutagenic call (Test System: AMES SALMONELLA TYPHIMURIUM, Strain/Indicator: TA98, Metabolic Activation: HUMAN, LIVER, MICROSOMES, Method: STANDARD PLATE) was “active; positive”; the mutagenic call (Test System: AMES SALMONELLA TYPHIMURIUM, Strain/Indicator: TA98, Metabolic Activation: RAT, LIVER, HEPATOCYTES, Method: PREINCUBATION) was “active; positive”; the mutagenic call (Test System: AMES SALMONELLA TYPHIMURIUM, Strain/Indicator: TA98, Metabolic Activation: RAT, LIVER, MICROSOMES, AROCLOR 1254, Method: STANDARD PLATE) was “active; positive”; the mutagenic call (Test System: AMES SALMONELLA TYPHIMURIUM, Strain/Indicator: TA98, Metabolic Activation: RAT, LIVER, MICROSOMES, Method: STANDARD PLATE) is “active; positive”; the mutagenic call (Test System: AMES SALMONELLA TYPHIMURIUM, Strain/Indicator: TA98, Metabolic Activation: RAT, LUNG, MICROSOMES, AROCLOR 1254, Method: STANDARD PLATE) is “active; positive”; the mutagenic call (Test System: AMES SALMONELLA TYPHIMURIUM, Strain/Indicator: TA98, Metabolic Activation: RAT, LUNG, MICROSOMES, Method: STANDARD PLATE) was “inactive; negative”. Besides, the mutagenic call is “active; positive” (Test System: CHINESE HAMSTER OVARY, Strain/Indicator: V-79/6-THIOGUANINE, Metabolic Activation: RAT, LIVER, S-9, AROCLOR 1254, Method: FLASK ASSAY); “active; positive” (Test System: CHINESE HAMSTER OVARY, Strain/Indicator: V-79/6-THIOGUANINE, Metabolic Activation: SHE CELL MEDIATED, Method: FLASK ASSAY); “active; positive” (Test System: CHINESE HAMSTER V-79, Strain/Indicator: V-79/6-THIOGUANINE, Metabolic Activation: RAT, LIVER, S-9, AROCLOR 1254, Method: SUSPENSION/PLATE); “active; positive” (Test System: CHINESE HAMSTER V-79, Strain/Indicator: V-79/6-THIOGUANINE, Metabolic Activation: SHE CELL-MEDIATED, Method: SUSPENSION/PLATE); “active; positive” under setting [1]; “active; positive” (Test System: UDS RAT HEPATOCYTES, Strain/Indicator: THY INCORP, Metabolic Activation: NONE, Method: LIQUID SCINTILLATION COUNTING).
On to `O=[N+]([O-])c1ccc2snc(Cl)c2c1`, for which the mutagenic call under setting [2] was “active; positive”.
With `CC(=O)OCc1ccc([N+](=O)[O-])cc1`, the mutagenic call is, setting by setting: (Test System: AMES SALMONELLA TYPHIMURIUM, Strain/Indicator: TA98, Metabolic Activation: NONE, Method: PREINCUBATION) “inactive; negative”; (Test System: AMES SALMONELLA TYPHIMURIUM, Strain/Indicator: TA100(NR), Metabolic Activation: NONE, Method: PREINCUBATION) “inactive; negative”; (Test System: AMES SALMONELLA TYPHIMURIUM, Strain/Indicator: TA100, Metabolic Activation: NONE, Method: PREINCUBATION) “active; positive”; (Test System: AMES SALMONELLA TYPHIMURIUM, Strain/Indicator: TA100, Metabolic Activation: RAT, LIVER, S-9, AROCLOR 1254, Method: PREINCUBATION) “active; positive”.
Regarding `Cc1c(-c2cnccn2)ssc1=S`, the mutagenic call was “inactive; negative” (Test System: AMES SALMONELLA TYPHIMURIUM, Strain/Indicator: TA98, Metabolic Activation: NONE, Method: STANDARD PLATE); “inactive; negative” (Test System: AMES SALMONELLA TYPHIMURIUM, Strain/Indicator: TA98, Metabolic Activation: RAT, LIVER, S-9, AROCLOR 1254 OR PHENOBARBITOL, Method: STANDARD PLATE); “inactive; negative” under setting [2]; “inactive; negative” (Test System: AMES SALMONELLA TYPHIMURIUM, Strain/Indicator: TA100, Metabolic Activation: RAT, LIVER, S-9, AROCLOR 1254 OR PHENOBARBITOL, Method: STANDARD PLATE); “inactive; negative” (Test System: AMES SALMONELLA TYPHIMURIUM, Strain/Indicator: TA1535, Metabolic Activation: NONE, Method: STANDARD PLATE); “inactive; negative” (Test System: AMES SALMONELLA TYPHIMURIUM, Strain/Indicator: TA1535, Metabolic Activation: RAT, LIVER, S-9, AROCLOR 1254 OR PHENOBARBITOL, Method: STANDARD PLATE). The mutagenic call was “inactive; negative” (Test System: AMES SALMONELLA TYPHIMURIUM, Strain/Indicator: TA1537, Metabolic Activation: NONE, Method: STANDARD PLATE); “inactive; negative” (Test System: AMES SALMONELLA TYPHIMURIUM, Strain/Indicator: TA1537, Metabolic Activation: RAT, LIVER, S-9, AROCLOR 1254 OR PHENOBARBITOL, Method: STANDARD PLATE); “inactive; negative” (Test System: AMES SALMONELLA TYPHIMURIUM, Strain/Indicator: TA1538, Metabolic Activation: NONE, Method: STANDARD PLATE); “inactive; negative” (Test System: AMES SALMONELLA TYPHIMURIUM, Strain/Indicator: TA1538, Metabolic Activation: RAT, LIVER, S-9, AROCLOR 1254 OR PHENOBARBITOL, Method: STANDARD PLATE).
As to `ClC(Cl)(Cl)c1nc(-c2ccc3c(c2)OCO3)nc(C(Cl)(Cl)Cl)n1`, the mutagenic call reads like this: (End Point: In vitro chromosomal aberrations, Test System: Chinese hamster lung (CHL/IU) cells, Metabolic Activation: Rat, Liver, S-9, Phenobarbital and 5,6-benzoflavone) “active; positive (structural changes and ploidy). ploidy response weak and not dose rela”; (Test System: Ames Salmonella typhimurium, Strain/Indicator: TA98, Metabolic Activation: None, Method: Preincubation) “inactive; negative”; (Test System: Ames Salmonella typhimurium, Strain/Indicator: TA98, Metabolic Activation: Rat, Liver, S-9, Phenobarbital and 5,6-benzoflavone, Method: Preincubation) “inactive; negative”; (Test System: Ames Salmonella typhimurium, Strain/Indicator: TA100, Metabolic Activation: None, Method: Preincubation) “active; positive”; (Test System: Ames Salmonella typhimurium, Strain/Indicator: TA100, Metabolic Activation: Rat, Liver, S-9, Phenobarbital and 5,6-benzoflavone, Method: Preincubation) “active; positive”; (Test System: Ames Salmonella typhimurium, Strain/Indicator: TA1535, Metabolic Activation: None, Method: Preincubation) “inactive; negative”. Also, the mutagenic call reads like this: (Test System: Ames Salmonella typhimurium, Strain/Indicator: TA1535, Metabolic Activation: Rat, Liver, S-9, Phenobarbital and 5,6-benzoflavone, Method: Preincubation) “active; positive”; (Test System: Ames Salmonella typhimurium, Strain/Indicator: TA1537, Metabolic Activation: None, Method: Preincubation) “inactive; negative”; (Test System: Ames Salmonella typhimurium, Strain/Indicator: TA1537, Metabolic Activation: Rat, Liver, S-9, Phenobarbital and 5,6-benzoflavone, Method: Preincubation) “inactive; negative”; (Test System: E. coli, Strain/Indicator: WP2uvrA/pKM101, Metabolic Activation: None, Method: Preincubation) “inactive; negative”; (Test System: E. coli, Strain/Indicator: WP2uvrA/pKM101, Metabolic Activation: Rat, Liver, S-9, Phenobarbital and 5,6-benzoflavone, Method: Preincubation) “inactive; negative”.
With `CC1(C)CCC2(C(=O)OC3OC(CO)C(O)C(O)C3O)CCC3(CO)C(=CCC4C5(C)CC(O)C(O)C(C)(C(=O)OC6OC(CO)C(O)C(O)C6O)C5CCC43C)C2C1` (stereo unspecified), the mutagenic call by setting is: (End Point: In vivo micronucleus, Test System: Bone marrow polychromatic erythrocytes, Species: Mouse, Strain/Sex: C57BL/6J/Male, Route: Intraperitoneal) “inactive; negative; protective when coadministered with gamma radiation”; (Test System: MOUSE LYMPHOMA, Strain/Indicator: L5178Y (TK+/TK-), Metabolic Activation: NONE, Method: SUSPENSION/PLATE) “inactive; negative. reevaluation of results: negative”; under setting [1], “inactive; negative. reevaluation of results: negative”.
